Patent publication US11046716B2, “Beta-lactamase inhibitors” (priority 2015, dated 2021)
Where two headings read alike, the source gives them in different places.

Key:
[1] = test system: E. coli expressing the Class A Extended Spectrum Beta-Lactamase (ESBL) CTX-M-15; assay: Broth microdilution MIC assay with ceftazidime, E. coli CTX-M-15; type: cell-based; conditions: Fixed CAZ (ceftazidime) 4 μg/mL; E. coli ESBL4 CTX-M-15
Source text: (§1) To determine the ability of test compounds to potentiate the inhibition of the growth of bacterial strains that produce beta-lactamase enzymes in the presence of a β-lactam antibiotic, classic cell based broth microdilution MIC assays were employed. Six bacteria strains producing beta-lactamase enzymes were used: E. coli expressing the Class A Extended Spectrum Beta-Lactamase (ESBL) CTX-M-15, E. cloacae expressing the Class C P99, K. pneumoniae expressing the Class A carbapenemase KPC-2, P. aeruginosa expressing the Class B carbapenemase VIM-2, K. pneumoniae expressing the class A carbapenemase KPC-2 and the class B carbapenemase VIM-4, and K. pneumoniae producing the Class D carbapenemase OXA-48. The assay was conducted in Cation Adjusted Mueller Hinton Broth (CAMHB, BD #212322, BD Diagnostic Systems, Sparks, Md.). Bacteria strains were grown for 3-5 hours in CAMBH broth. Test compounds (Examples 1-94) were added to a microtiter plate in 2-fold serial dilutions in CAMHB in a final concentration range of 16 μg/mL to 0.125 μg/ml. An overlay of CAMHB containing a Beta-lactam was added to the compounds at a final static concentration of 4 μg/ml. […] In addition to the titration of test compounds the MICs of a panel of control beta-lactams is also tested to ensure the strains are behaving consistently from test to test. Once the test compound and antibiotics are added the plates can be inoculated according to CLSI broth microdilution method. After inoculation the plates are incubated for 16-20 hours at 37° C. then the Minimal Inhibitory Concentration (MIC) of the test compound is determined visually.
(§2) Using the methodology described above, examples of the current invention were evaluated for their ability to inhibit the growth of β-lactamase-producing bacteria in the presence of a β-lactam antibiotic.

[2] = target: T1, AmpC (Enterobacter cloacae, UniProt P05364); assay: β-lactamase enzyme inhibition assay, p99 AmpC (nitrocefin substrate); type: biochemical
T1 construct: made in house; host or cells: E. coli BL21(DE3)
T1 sequence (P05364 21-381): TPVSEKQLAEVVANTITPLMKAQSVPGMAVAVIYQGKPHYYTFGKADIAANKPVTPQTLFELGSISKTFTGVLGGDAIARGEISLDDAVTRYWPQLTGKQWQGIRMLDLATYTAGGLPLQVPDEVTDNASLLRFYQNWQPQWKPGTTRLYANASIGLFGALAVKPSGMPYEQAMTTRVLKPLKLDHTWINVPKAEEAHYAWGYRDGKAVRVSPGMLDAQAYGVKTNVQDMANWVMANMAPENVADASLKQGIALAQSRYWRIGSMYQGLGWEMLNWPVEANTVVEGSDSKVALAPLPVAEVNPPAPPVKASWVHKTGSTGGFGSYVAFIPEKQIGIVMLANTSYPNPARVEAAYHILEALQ
Procedure: (§3) For SHV-5, Kpc-2, p99AmpC and OXA-1 β-lactamases, E. coli BL21(DE3) bacterial cells carrying expression plasmids (expressed as native untagged proteins) for the individual β-lactamases were grown in 1 L of Superbroth (Teknova Inc. Hollister, Calif.) supplemented with 100 μg/ml kanamycin selection and 1×5052 (0.5% glycerol, 0.05% glucose and 0.2% α-lactose) at 35° C. for 18-20 hours. Cells were harvested by centrifugation (4,000×g, 4° C., 20 min), resuspended in 50 ml of 10 mM HEPES pH 7.5 ( 1/20 of the initial volume). The cells were lysed by sonication (5 pulses of 45 seconds) at 45 W on ice. The lysates were clarified by centrifugation at 10,000×g for 40 minutes at 4° C. Samples were diluted 5-fold in 50 mM sodium acetate pH 5.0, stored overnight at 4° C., after which they were centrifuged at 10,000×g for 30 minutes to clarify, and filtered through 0.45 μm filters. The samples were loaded onto a 5 ml Capto S sepharose cation exchange column (GE Healthcare) pre-equilibrated with 50 mM sodium acetate pH 5.0. The column was washed with 5 column volumes of 50 mM sodium acetate pH 5.0 to wash out unbound protein and a linear gradient of NaCl (0 to 500 mM) was used to elute the protein (over 16 CV) from the column. Fractions were assayed for β-lactamase activity using Centa (Calbiochem, Gibbstown, N.J.) or Nitrocefin (EMD Millipore chemicals, Darmstadt, Germany) as a reporter β-lactamase substrate for activity in the isolated fractions. Active fractions were pooled, concentrated and further purified by gel filtration chromatography on a Superdex 75 prep grade gel filtration column (GE Healthcare, Piscataway, N.J.) pre-equilibrated in 50 mM Hepes pH 7.5, 150 mM NaCl. Active fractions were pooled concentrated, quantitated by BCA protein determination (Thermo Scientific, Rockford, Ill.), dialyzed into PBS and frozen at −80° C. in 20% glycerol until use.
(§4) An equal volume of diluted enzyme stock was added, and the plates were incubated at 37° C. for 15 min. Nitrocefin was used as substrate for p99 AmpC, VIM-2 and OXA-1 and dispensed into each well at a final concentration of 100 μM. Absorbance at 486 nm was immediately monitored for 10 min using a Biotek Powerwave XS2 microplate spectrophotometer using the GEN5 software package (Biotek Instruments, Winooski Vt.). In an analogous fashion, imipenem was used as substrate for Kpc-2 and Cefotaxime was used for SHV-5, while changes in absorbance upon hydrolysis of the β-lactam ring were monitored at 300 nm and 260 nm respectively in UV-transparent 96-well microtiter assay plates. Maximum rates of hydrolysis were compared to those in control wells (without inhibitors), and percentages of enzyme inhibition were calculated for each concentration of inhibitor. The concentration of inhibitor needed to reduce the initial rate of hydrolysis of substrate by 50% (IC50) was calculated as the residual activity of β-lactamase at 486 nm using GraFit version 7 kinetics software package (Erithacus Software, Surrey, UK).
(§5) Using the methodology described above, examples of the current invention were evaluated for their ability to inhibit β-lactamase enzymes from all four Ambler classifications (A through D). […] NT=Not tested.

[3] = test system: K. pneumoniae expressing the Class A carbapenemase KPC-2; assay: Broth microdilution MIC assay with meropenem, K. pneumoniae KPC-2; type: cell-based; conditions: for MIC (μg/mL) of Exemplary Compounds in presence of fixed β-lactams: K. p. 156319 KPC-3: Fixed Mero (meropenem) 4 μg/mL
Source text: as §1, §2

[4] = test system: K. pneumoniae expressing the class A carbapenemase KPC-2 and the class B carbapenemase VIM-4; assay: Broth microdilution MIC assay with meropenem, K. pneumoniae KPC-2 and VIM-4; type: cell-based; conditions: for MIC (μg/mL) of Exemplary Compounds in presence of fixed β-lactams: K. p. A-1797 KPC-2 VIM-4: Fixed Mero (meropenem) 4 μg/mL
Source text: as §1, §2

[5] = test system: P. aeruginosa expressing the Class B carbapenemase VIM-2; assay: Broth microdilution MIC assay with meropenem, P. aeruginosa VIM-2; type: cell-based; conditions: for MIC (μg/mL) of Exemplary Compounds in presence of fixed β-lactams: P. aerug. 2775 VIM-2: Fixed Mero (meropenem) 4 μg/mL
Source text: as §1, §2

[6] = target: T2, SHV-5 (Klebsiella pneumoniae, UniProt P0A3M1); assay: β-lactamase enzyme inhibition assay, SHV-5 (cefotaxime substrate); type: biochemical
T2 construct: made in house; host or cells: E. coli BL21(DE3)
T2 sequence (P0A3M1 22-286): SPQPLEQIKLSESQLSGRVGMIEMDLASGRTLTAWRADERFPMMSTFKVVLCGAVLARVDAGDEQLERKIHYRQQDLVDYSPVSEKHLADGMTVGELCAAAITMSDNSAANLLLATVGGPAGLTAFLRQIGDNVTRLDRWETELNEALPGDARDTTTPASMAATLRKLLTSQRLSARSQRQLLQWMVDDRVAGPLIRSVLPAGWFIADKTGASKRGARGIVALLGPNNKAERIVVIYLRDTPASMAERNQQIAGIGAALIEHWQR
Procedure: as §3, §4, §5

[7] = target: OXA-48 (UniProt Q6XEC0); assay: β-lactamase enzyme inhibition assay, Class D oxacillinase; type: biochemical; conditions: read-out: OXA-48
[8] = target: T3, VIM-2 (Escherichia coli, UniProt Q5U7L7); assay: β-lactamase enzyme inhibition assay, VIM-2 (nitrocefin substrate); type: biochemical
T3 construct: made in house; host or cells: E. coli BL21(DE3)
Procedure: For Vim-2 metallo β-lactamase, the procedure was identical with the following exceptions, first the protein was not pH adjusted to pH 5 with 50 mM sodium acetate, second, the chromatography step was changed to a 5 ml Q sepharose anion exchange column pre-equilibrated with 50 mM Hepes pH 7.5, and elution of the protein was achieved by a linear gradient of NaCl (0-600 mM). Finally, the VIM-2 purification required a second run (3rd step) on the Q sepharose anion exchange column to achieve acceptable purity (>90%).
as §4, §5

[9] = test system: K. pneumoniae producing the Class D carbapenemase OXA-48; assay: Broth microdilution MIC assay with meropenem, K. pneumoniae OXA-48; type: cell-based; conditions: for MIC (μg/mL) of Exemplary Compounds in presence of fixed β-lactams: K. p. 11978 OXA-48: Fixed Mero (meropenem) 4 μg/mL
Source text: as §1, §2

[10] = target: T4, KPC-2 (Klebsiella pneumoniae, UniProt Q9F663); assay: β-lactamase enzyme inhibition assay, KPC-2 (imipenem substrate); type: biochemical
T4 construct: made in house; host or cells: E. coli BL21(DE3)
T4 sequence (Q9F663 25-293, looked up): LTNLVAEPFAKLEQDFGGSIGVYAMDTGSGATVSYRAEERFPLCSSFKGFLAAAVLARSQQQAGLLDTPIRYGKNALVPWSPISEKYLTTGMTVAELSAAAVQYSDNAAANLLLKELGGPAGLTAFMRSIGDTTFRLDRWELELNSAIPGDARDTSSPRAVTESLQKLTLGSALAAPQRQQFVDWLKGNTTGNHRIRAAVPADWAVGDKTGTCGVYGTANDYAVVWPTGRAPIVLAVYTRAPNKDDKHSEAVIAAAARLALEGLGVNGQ
Procedure: as §3, §4, §5

[11] = Class B, nitrocefin substrate, 486 nm, read-out: VIM-2
[12] = Class A, imipenem substrate, 300 nm, read-out: KPC-2
[13] = Klebsiella pneumoniae, read-out: MIC alone

SMILES | MIC (μg/mL) of Exemplary Compounds in presence of fixed β-lactams: E. coli ESBL4 CTX-M-15 [1] | IC50 [2] [nM] | MIC (μg/mL) of Exemplary Compounds in presence of fixed β-lactams: K. p. 156319 KPC-3 [3] | MIC (μg/mL) of Exemplary Compounds in presence of fixed β-lactams: K. p. A-1797 KPC-2 VIM-4 [4] | MIC (μg/mL) of Exemplary Compounds in presence of fixed β-lactams: P. aerug. 2775 VIM-2 [5] | IC50 [6] [nM] | IC50 [7] [nM] | IC50 [8, 11] [nM] | MIC (μg/mL) of Exemplary Compounds in presence of fixed β-lactams: K. p. 11978 OXA-48 [9] | IC50 [10, 12] [nM] | IC50 [8] [nM] | IC50 [10] [nM] | MIC [3, 13] [µg/mL] | MIC [4, 13] [µg/mL] | MIC ([5]; Pseudomonas aeruginosa, read-out: MIC alone) [µg/mL] | MIC [9, 13] [µg/mL]
O=C(Cn1cc(CCO)nn1)N[C@H]1Cc2cccc(C(=O)O)c2OB1O [Example 5, (R)-2-hydroxy-3-(2-(4-(2-hydroxyethyl)-11,2,3-triazol-1-yl)acetamido)-3,4-dihydro-2H-benzo[e][1,2]oxaborinine-8-carboxylic acid] | C (C represents an MIC of <1 μg/mL) | < 100 | B (B represents an MIC between 1 and 16 μg/mL inclusive) | B (B represents an MIC between 1 and 16 μg/mL inclusive) | B (B represents an MIC between 1 and 16 μg/mL inclusive) | < 100 | 100 to 1000 | 10000 to 100000 | B (B represents an MIC between 1 and 16 μg/mL inclusive) | < 100 |  |  |  |  |  | 
NCCc1cn(CC(=O)N[C@H]2Cc3cccc(C(=O)O)c3OB2O)nn1 [Example 6, (R)-3-(2-(4-(2-aminoethyl)-1H-1,2,3-triazol-1-yl)acetamido)-2-hydroxy-3,4-dihydro-2H-benzo[e][1,2]oxaborinine-8-carboxylic acid] | C (C represents an MIC of <1 μg/mL) | < 100 | C (C represents an MIC of <1 μg/mL) | B (B represents an MIC between 1 and 16 μg/mL inclusive) | C (C represents an MIC of <1 μg/mL) | 100 to 1000 | 1000 to 10000 | 1000 to 10000 | B (B represents an MIC between 1 and 16 μg/mL inclusive) | < 100 |  |  |  |  |  | 
C[Si](C)(C)c1cn(CC(=O)N[C@H]2Cc3cccc(C(=O)O)c3OB2O)nn1 [Example 9, (R)-2-hydroxy-3-(2-(4-(trimethylsilyl)-1H-1,2,3-triazol-1-yl)acetamido)-3,4-dihydro-2H-benzo[e][1,2]oxaborinine-8-carboxylic acid] | B (B represents an MIC between 1 and 16 μg/mL inclusive) | < 100 | A (A represents an MIC>16 μg/mL) | A (A represents an MIC>16 μg/mL) |  | < 100 | 100 to 1000 |  | A (A represents an MIC>16 μg/mL) |  | 1000 to 10000 | < 100 |  |  |  | 
CCOC(=O)c1nnn(CC(=O)N[C@H]2Cc3cccc(C(=O)O)c3OB2O)c1C(=O)OCC [Example 11, (R)-3-(2-(4,5-bis(ethoxycarbonyl)-1H-1,2,3-triazol-1-yl)acetamido)-2-hydroxy-3,4-dihydro-2H-benzo[e][1,2]oxaborinine-8-carboxylic acid] | B (B represents an MIC between 1 and 16 μg/mL inclusive) | < 100 | B (B represents an MIC between 1 and 16 μg/mL inclusive) | B (B represents an MIC between 1 and 16 μg/mL inclusive) |  | < 100 | < 100 | 1000 to 10000 | A (A represents an MIC>16 μg/mL) | < 100 |  |  |  |  |  | 
NCC#Cc1c(CN)nnn1CC(=O)N[C@H]1Cc2cccc(C(=O)O)c2OB1O [Example 109, (R)-3-(2-(4-(aminomethyl)-5-(3-aminoprop-1-yn-1-yl)-1H-1,2,3-triazol-1-yl)acetamido)-2-hydroxy-3,4-dihydro-2H-benzo[e][1,2]oxaborinine-8-carboxylic acid] | C (C represents an MIC of <1 μg/mL) | 100 to 1000 | B (B represents an MIC between 1 and 16 μg/mL inclusive) | C (C represents an MIC of <1 μg/mL) | C (C represents an MIC of <1 μg/mL) | 100 to 1000 | < 100 | < 100 | B (B represents an MIC between 1 and 16 μg/mL inclusive) | 100 to 1000 |  |  |  |  |  | 
C[C@@H](O)[C@H]1C(=O)N2C(C(=O)O)=C(S[C@@H]3CN[C@H](C(=O)N(C)C)C3)[C@H](C)[C@H]12 [Meropenem, meropenem, reference compound] |  |  |  |  |  |  |  |  |  |  |  |  | > 128 | 64 | 16 | 128
